Here are results for 39 compounds from US20080287374A1, “BREAST CANCER-RESISTANT PROTEIN INHIBITOR” (KABUSHIKI KAISHA YAKULT HONSHA, priority 2003, published 2008).

In brackets after ≈: the same amount, converted by molar mass.

The test system of one experiment is A549/SN-38-4 cell line. The experiment can be described thus: Effect of flavonoid in overcoming anticancer drug (SN-38) resistance of A549/SN-38 cell line. It counts as cell-based, human. The settings on record: concentration of flavonoid for 50% reduction of relative resistance value to SN-38, A549/SN-38-4, 48 hours; for EC50: Homo sapiens. As for the experimental part:
The A549 cell line or the A549/SN-38-4 cell line was suspended in 10% FBS/Ham's F-12, and the resultant suspension was inoculated into a 96-well microplate, followed by culturing at 5% CO2 and 37° C. overnight (2×10^3 cells/50 μL/well). Thereafter, a solution of a flavonoid and SN-38 in 10% FBS/Ham's F-12 (25 μL) was added to each of the wells, followed by culturing at 5% CO2 and 37° C. for 48 hours. After completion of culturing, the number of viable cells was counted by use of TetraColor ONE according to the attached instruction manual.

The next experiment deals with MES-SA/Dx5 cell line. The experiment can be described thus: Effect of flavonoid on multidrug (paclitaxel) resistance of MES-SA/Dx5 cell line. The experiment is classed as cell-based, human. The settings on record: concentration of flavonoid for 50% reduction of relative resistance value to paclitaxel, MES-SA/Dx5 (P-glycoprotein overexpression), 48 hours; for EC50: Homo sapiens, read-out: Resistance overcoming effect EC50. As for the experimental part: Human uterine cancer MES-SA cell line or MES-SA/Dx5 cell line which had acquired multidrug resistance through overexpression of P-glycoprotein (Cancer Res. 45, 4091-4096 (1985)) was suspended in 10% FBS/DMEM, and the resultant suspension was inoculated into a 96-well microplate, followed by culturing at 5% CO2 and 37° C. overnight (3×10^3 cells/50 μL/well). Thereafter, a solution of a flavonoid and paclitaxel in 10% FBS/DMEM (25 μL) was added to each of the wells, followed by culturing at 5% CO2 and 37° C. for 48 hours. After completion of culturing, the number of viable cells was counted by use of TetraColor ONE according to the attached instruction manual.

For orientation: EC50 means the concentration needed to bring the measured effect to its halfway point. Regarding `COc1ccc(-c2oc3ccccc3c(=O)c2OC)cc1` [Compound 1-17, 3,4′-Dimethoxyflavone], the EC50 in the experiment on A549/SN-38-4 cell line was 0.06 µg/mL (≈ 0.213 µM); in the experiment with MES-SA/Dx5 cell line, more than 1 µg/mL. For `COc1cc(O)c2c(c1)OC(c1ccc(O)cc1)CC2=O` (centres unmarked) [Compound 2-2, 4′,5-Dihydroxy-7-methoxyflavanone], the EC50 with A549/SN-38-4 cell line is 0.48 µg/mL (≈ 1.68 µM); in the experiment on MES-SA/Dx5 cell line, more than 1 µg/mL. For `CCOc1cc(O)c(C(=O)/C=C/c2ccc(OCC)c(OCC)c2)c(OCC)c1` [Compound 3-4, 2′-Hydroxy-3,4,4′,6′-tetraethoxychalcone] the same measures were 0.023 µg/mL (≈ 0.0574 µM) and more than 1 µg/mL. `COc1cc(-c2cc(=O)c3c(O)cc(O)cc3o2)cc(OC)c1OC` [Compound 1-2, 5,7-Dihydroxy-3′,4′,5′-trimethoxyflavone]: the EC50 with A549/SN-38-4 cell line is 0.048 µg/mL (≈ 0.139 µM); with MES-SA/Dx5 cell line it was more than 1 µg/mL. Consider `COc1ccc(O)c(C(=O)/C=C/c2cccc(OC)c2OC)c1` [Compound 3-9, 2′-Hydroxy-2,3,5′-trimethoxychalcone], for which the EC50 in the experiment with A549/SN-38-4 cell line was 0.94 µg/mL (≈ 2.99 µM); with MES-SA/Dx5 cell line, more than 1 µg/mL. The compound `COc1cc2oc(-c3ccc(O)cc3O)c(CC=C(C)C)c(=O)c2c(O)c1C=CC(C)C` [Compound 1-29, 2′,4′,5-Trihydroxy-7-methoxy-6-(3-methyl-1-butenyl)-3-(3-methyl-2-butenyl)-flavone] gave an EC50 with A549/SN-38-4 cell line of 0.23 µg/mL (≈ 0.527 µM). On to `COc1ccc(C2CC(=O)c3c(O)cc(O)cc3O2)cc1O` (centres unmarked) [Compound 2-1, 3′,5,7-Trihydroxy-4′-methoxyflavanone], for which the EC50 was 0.15 µg/mL (≈ 0.496 µM) in the experiment with A549/SN-38-4 cell line and more than 1 µg/mL with MES-SA/Dx5 cell line. The like results for `COc1cc(O)c2c(=O)cc(-c3ccc(O)cc3)oc2c1` [Compound 1-1, 5,4′-Dihydroxy-7-methoxyflavone] were, in that order, 0.017 µg/mL (≈ 0.0598 µM) and more than 1 µg/mL.

For the compound `O=c1c(O)c(-c2ccc(O)cc2)oc2cc(O)cc(O)c12` [Compound 1-7, 3,4′,5,7-Tetrahydroxyflavone], the EC50 was 0.13 µg/mL (≈ 0.454 µM) in the experiment with A549/SN-38-4 cell line and more than 1 µg/mL in the experiment on MES-SA/Dx5 cell line.

`COc1ccc(-c2oc3c(OC)c(OC)c(OC)c(OC)c3c(=O)c2OC)cc1OC` [Compound 1-24, 3,3′,4′,5,6,7,8-Heptamethoxyflavone] came in with an EC50 in the experiment with A549/SN-38-4 cell line of 0.054 µg/mL (≈ 0.125 µM). For `COc1ccc(-c2coc3cc(OC4O[C@H](CO)[C@@H](O)[C@H](O)[C@H]4O)cc(O)c3c2=O)cc1` (some centres unmarked) [Compound 4-2, 5-Hydroxy-4′-methoxyisoflavone-7-glucoside], the “Resistance overcoming effect EC50” value with A549/SN-38-4 cell line is 0.84 µg/mL; with MES-SA/Dx5 cell line, more than 1.0 µg/mL.

`O=c1cc(-c2ccc(O)cc2)oc2cc(O)cc(O)c12` [Compound 1-9, 4′,5,7-Trihydroxyflavone]: the EC50 with A549/SN-38-4 cell line is 0.12 µg/mL (≈ 0.444 µM); in the experiment with MES-SA/Dx5 cell line it was more than 1 µg/mL.

As to `CC(C)=CCc1c(-c2ccc(O)cc2O)oc2c3c(cc(O)c2c1=O)OC(C)(C)C=C3` [Compound 1-28, 4H,8H-Benzo[1,2-b:3,4-b′]dipyran-4-one,2-(2,4-dihydroxyphenyl)-5-hydroxy-8,8-dimethyl-3-(3-methyl-2-butenyl)], the “Resistance overcoming effect EC50” value in the experiment on A549/SN-38-4 cell line came out at 2.0 µg/mL. For `Cc1ccc(-c2cc(=O)c3cc(Cl)cc(Cl)c3o2)cc1` [Compound 1-18, 6,8-Dichloro-4′-methylflavone], the EC50 in the experiment on A549/SN-38-4 cell line was 0.14 µg/mL (≈ 0.459 µM); with MES-SA/Dx5 cell line, more than 1 µg/mL. The like results for `COc1cc2oc(-c3ccccc3)cc(=O)c2c(O)c1O` [Compound 1-12, 5,6-Dihydroxy-7-methoxyflavone] were, in that order, 0.074 µg/mL (≈ 0.26 µM) and more than 1 µg/mL. As for `COc1cc(/C=C/C(=O)c2cc(Cl)cc(Br)c2O)cc(OC)c1OC` [Compound 3-10, 3′-Bromo-5′-Chloro-2′-hydroxy-3,4,5-trimethoxychalcone], the EC50 in the experiment with A549/SN-38-4 cell line was 0.97 µg/mL (≈ 2.27 µM); with MES-SA/Dx5 cell line, more than 1 µg/mL. Turning to `COc1cc(O)c(C(=O)/C=C/c2cc(OC)c(OC)cc2OC)c(OC)c1` [Compound 3-6, 2′-Hydroxy-2,4,4′,5,6′-pentamethoxychalcone], the 50% effective concentration (EC50) in the experiment on A549/SN-38-4 cell line was 0.0074 µg/mL (≈ 0.0198 µM); in the experiment with MES-SA/Dx5 cell line it was more than 1 µg/mL. Regarding `O=c1cc(-c2ccc(O)cc2)oc2cc(OC3O[C@H](CO)[C@@H](O)[C@H](O)[C@H]3O)cc(O)c12` (some centres unmarked) [Compound 1-10, 4′,5-Dihydroxyflavone-7-glucoside], the “Resistance overcoming effect EC50” value in the experiment with A549/SN-38-4 cell line was 0.17 µg/mL; in the experiment on MES-SA/Dx5 cell line it was more than 1.0 µg/mL. In the case of `COc1ccc(-c2cc(=O)c3cc(OC)ccc3o2)c(OC)c1` [Compound 1-16, 2′,4′,6-Trimethoxyflavone], the 50% effective concentration (EC50) in the experiment on A549/SN-38-4 cell line was 0.098 µg/mL (≈ 0.314 µM); in the experiment on MES-SA/Dx5 cell line, more than 1 µg/mL. `COc1cc(O)c2c(=O)c(OC)c(-c3ccc(O)c(OC)c3)oc2c1` [Compound 1-22, 4′,5-Dihydroxy-3,3′,7-trimethoxyflavone] displayed a concentration giving a half-maximal response (EC50) in the experiment with A549/SN-38-4 cell line of 0.046 µg/mL (≈ 0.134 µM). `COc1cc(/C=C/C(=O)c2cc(Br)cc(Cl)c2O)cc(OC)c1OC` [Compound 3-7, 5′-Bromo-3′-chloro-2′-hydroxy-3,4,5-trimethoxychalcone]: the 50% effective concentration (EC50) was 0.65 µg/mL (≈ 1.52 µM) in the experiment with A549/SN-38-4 cell line and more than 1 µg/mL in the experiment on MES-SA/Dx5 cell line. For `COc1cc2oc(-c3ccc(O)cc3)cc(=O)c2c(O)c1OC` [Compound 1-19, 5,4′-Dihydroxy-6,7-dimethoxyflavone] the same measures were 0.015 µg/mL (≈ 0.0477 µM) and more than 1 µg/mL. Take `CC(C)=CCc1c2c(c(O)c3c1OC(c1ccc(O)cc1)CC3=O)C=CC(C)(C)O2` (centres unmarked) [Compound 2-3, 2H,6H-Benzo[1,2-b:5,4-b′]dipyran-6-one,7,8-dihydro-5-hydroxy-8-(4-hydroxyphenyl)-2,2-dimethyl-10-(3-methyl-2-butenyl)]: the “Resistance overcoming effect EC50” value in the experiment on A549/SN-38-4 cell line was determined as 0.067 µg/mL. For `COc1cc(-c2cc(=O)c3c(OC)c(OC)c(OC)c(OC)c3o2)c([N+](=O)[O-])cc1OC` [Compound 1-20, 2′-Nitro-4′,5,5′,6,7,8-hexamethoxyflavone], the results for the half-maximal effective concentration (EC50) with A549/SN-38-4 cell line and in the experiment on MES-SA/Dx5 cell line were 0.75 µg/mL (≈ 1.68 µM) and more than 1 µg/mL, respectively. Turning to `COc1cc(O)c(C(=O)/C=C/c2ccc(O)cc2)c(OC)c1` [Compound 3-1, 2′,4-Dihydroxy-4′,6′-dimethoxychalcone], the half-maximal effective concentration (EC50) with A549/SN-38-4 cell line was 0.04 µg/mL (≈ 0.133 µM); with MES-SA/Dx5 cell line, more than 1 µg/mL.

As for `COc1ccc(-c2coc3cc(O)cc(O)c3c2=O)cc1` [Compound 4-1, 5,7-Dihydroxy-4′-methoxyisoflavone], the EC50 in the experiment with A549/SN-38-4 cell line is 0.33 µg/mL (≈ 1.16 µM); in the experiment with MES-SA/Dx5 cell line, more than 1 µg/mL. For `COc1cccc(-c2cc(=O)c3cc(OC)ccc3o2)c1` [Compound 1-21, 3′,6-Dimethoxyflavone] the same measures were 0.52 µg/mL (≈ 1.84 µM) and more than 1 µg/mL. For `O=c1cc(-c2ccccc2)oc2cc(O)cc(O)c12` [Compound 1-3, 5,7-Dihydroxyflavone] the same measures were 0.1 µg/mL (≈ 0.393 µM) and more than 1 µg/mL. `CC(C)=CC1Oc2cc(O)ccc2-c2oc3cc(O)c(C=CC(C)C)c(O)c3c(=O)c21` (centres unmarked) [Compound 5-1, 6H,7H-[1]benzopyrano[4,3-b][1]benzopyran-7-one,3,8,10-trihydroxy-9-(3-methyl-1-butenyl)-6-(2-methyl-1-propenyl)]: the “Resistance overcoming effect EC50” value in the experiment on A549/SN-38-4 cell line came out at 0.18 µg/mL. As to `COc1cc(N)c(-c2cc(=O)c3c(OC)c(OC)c(OC)c(OC)c3o2)cc1OC` [Compound 1-5, 2′-Amino-4′,5,5′,6,7,8-hexamethoxyflavone], the EC50 with A549/SN-38-4 cell line was 0.081 µg/mL (≈ 0.194 µM); in the experiment on MES-SA/Dx5 cell line it was more than 1 µg/mL. In the case of `COc1ccc(/C=C/C(=O)c2ccccc2O)cc1OC` [Compound 3-3, 2′-Hydroxy-3,4-dimethoxychalcone], the results for the EC50 in the experiment with A549/SN-38-4 cell line and in the experiment on MES-SA/Dx5 cell line were 0.16 µg/mL (≈ 0.563 µM) and more than 1 µg/mL, respectively. The like results for `COc1ccc(/C=C/C(=O)c2c(O)cc(OC)cc2O)cc1` [Compound 3-8, 2′,6′-Dihydroxy-4,4′-dimethoxychalcone] were, in that order, 0.79 µg/mL (≈ 2.63 µM) and more than 1 µg/mL. `COc1cc(O)c2c(=O)cc(-c3ccc(OC)c(OC)c3)oc2c1` [Compound 1-23, 5-Hydroxy-3′,4′,7-trimethoxyflavone]: the EC50 with A549/SN-38-4 cell line stood at 0.007 µg/mL (≈ 0.0213 µM). Regarding `COc1cc2oc(-c3ccc(OC4O[C@H](CO)[C@@H](O)[C@H](O)[C@H]4O)cc3)cc(=O)c2c(O)c1OC` (some centres unmarked) [Compound 1-26, 5-Hydroxy-6,7-dimethoxyflavone-4′-glucoside], in the experiment with A549/SN-38-4 cell line, the “Resistance overcoming effect EC50” value was determined as 0.14 µg/mL. Take `COc1ccc(/C=C/C(=O)c2ccccc2)cc1OC` [Compound 3-2, 3,4-Dimethoxychalcone]: the EC50 in the experiment on A549/SN-38-4 cell line was 0.23 µg/mL (≈ 0.857 µM); in the experiment on MES-SA/Dx5 cell line, more than 1 µg/mL. In the experiment on A549/SN-38-4 cell line, `COc1ccc(-c2cc(=O)c3c(OC)c(OC)c(OC)cc3o2)cc1OC` [Compound 1-25, 3′,4′,5,6,7-Pentamethoxyflavone] returned a half-maximal effective concentration (EC50) of 0.53 µg/mL (≈ 1.42 µM). Regarding `COc1cc(-c2oc3cc(O)cc(O)c3c(=O)c2O)ccc1O` [Compound 1-11, 3,4′,5,7-Tetrahydroxy-3′-methoxyflavone], the values for the EC50 in the experiment on A549/SN-38-4 cell line and in the experiment with MES-SA/Dx5 cell line were 0.16 µg/mL (≈ 0.506 µM) and more than 1 µg/mL, respectively. As for `COc1ccc(-c2cc(=O)c3c(OC)c(OC)c(OC)cc3o2)cc1O` [Compound 1-13, 3′-Hydroxy-4′,5,6,7-tetramethoxyflavone], the values for the concentration for a half-maximal effect (EC50) with A549/SN-38-4 cell line and in the experiment on MES-SA/Dx5 cell line were 0.11 µg/mL (≈ 0.307 µM) and more than 1 µg/mL, respectively. As for `COc1cc(O)c2c(=O)cc(-c3ccc(OC4O[C@H](CO)[C@@H](O)[C@H](O)[C@H]4O)cc3)oc2c1` (some centres unmarked) [Compound 1-27, 5-Hydroxy-7-methoxyflavone-4′-glucoside], the “Resistance overcoming effect EC50” value with A549/SN-38-4 cell line came out at 0.042 µg/mL.
